Results on 2 compounds are retold here after the NIST ThermoML archive (doi:10.1021/acs.jced.6b00360).

± gives the expanded uncertainty stated by the source.

The conditions of this series: Liquid, Vibrating tube method.

On to `COC(=O)CCCCCCCCCCC(=O)OC` [dimethyl dodecanoate], for which the mass density (313.15 K, 101.33 kPa) was 959.4 ± 3.9 kg/m3; the mass density (323.15 K, 101.33 kPa) came to 951 ± 3.9 kg/m3; the mass density (333.15 K, 101.33 kPa) came to 943.1 ± 3.9 kg/m3; the mass density (343.15 K, 101.33 kPa) worked out at 934.4 ± 3.8 kg/m3; the mass density (352.15 K, 101.33 kPa) came out at 927 ± 3.8 kg/m3.
In the case of `C=CCCCCCCCCC(=O)OC` [methyl 10-undecenoate], the mass density by setting is: (280.15 K, 100 kPa) 897.46 ± 5.7 kg/m3; (280.15 K, 40000 kPa) 914.37 ± 5.8 kg/m3; (293.15 K, 100 kPa) 886.83 ± 5.6 kg/m3; (293.15 K, 40000 kPa) 906.75 ± 5.8 kg/m3; (303.15 K, 100 kPa) 878.63 ± 5.5 kg/m3; (303.15 K, 40000 kPa) 895.63 ± 5.7 kg/m3. Besides, the mass density (313.15 K, 100 kPa) was 870.71 ± 5.5 kg/m3; the mass density (313.15 K, 40000 kPa) was 888.48 ± 5.7 kg/m3; the mass density (323.15 K, 100 kPa) came out at 862.33 ± 5.4 kg/m3; the mass density (323.15 K, 40000 kPa) was 881.75 ± 5.6 kg/m3; the mass density (333.15 K, 100 kPa) is listed as 854.49 ± 5.3 kg/m3; the mass density (333.15 K, 40000 kPa) was 874.61 ± 5.6 kg/m3. The mass density by setting is: (343.15 K, 100 kPa) 845.8 ± 5.3 kg/m3; (352.15 K, 100 kPa) 838.42 ± 5.2 kg/m3.

For orientation: mass density means the mass of a sample divided by its volume.
